Laboratory results taken from patent US20080299188A1, “CONTROLLED RELEASE DOSAGE FORMS COMBINING IMMEDIATE RELEASE AND SUSTAINTED RELEASE OF LOW-SOLUBILITY DRUG” (Pfizer Inc., priority 2007, published 2008).
Counter-ions that a name gives are not always drawn.

Experiments:
Type in all cases: physicochemical
[1] = microcentrifuge dissolution test in MFD solution; conditions: during the initial ninety minutes
Description: Microcentrifuge dissolution tests were performed to evaluate the hydrochloride crystalline salt form of ziprasidone to verify that it was a solubility-improved form of ziprasidone. For this test, a sufficient amount of ziprasidone hydrochloride monohydrate was added to a microcentrifuge test tube so that the concentration of ziprasidone would have been 200 μgA/mL, if all of the ziprasidone had dissolved. The tests were run in duplicate. The tubes were placed in a 37° C. temperature-controlled chamber, and 1.8 mL MFD solution at pH 6.5 and 290 mOsm/kg was added to each respective tube. The samples were quickly mixed using a vortex mixer for about 60 seconds. The samples were centrifuged at 13,000 G at 37° C. for 1 minute prior to collecting a sample. The resulting supernatant solution was then sampled and diluted 1:5 (by volume) with methanol. Samples were analyzed by high-performance liquid chromatography (HPLC) at a UV absorbance of 315 nm using a Zorbax RxC8 Reliance column and a mobile phase consisting of 55% (50 mM potassium dihydrogen phosphate, pH 6.5)/45% acetonitrile. Drug concentration was calculated by comparing UV absorbance of samples to the absorbance of drug standards. The contents of each tube were mixed on the vortex mixer and allowed to stand undisturbed at 37° C. until the next sample was taken. Samples were collected at 4, 10, 20, 40, 90, and 1200 minutes following administration to the MFD solution.
A similar test was performed with the crystalline ziprasidone free base as a control, and a sufficient amount of material was added so that the concentration of compound would have been 200 μgA/mL, if all of the ziprasidone had dissolved.
The concentrations of ziprasidone obtained in these tests were used to determine the maximum dissolved concentration of ziprasidone (“MDC90”) and the area under the concentration-versus-time curve (“AUC90”) during the initial ninety minutes.

[2] = solubility in phosphate buffered saline (pH 6.5); conditions: expressed as the free base
Description: An example of a drug having a crystalline highly soluble salt form is ziprasidone. Ziprasidone hydrochloride monohydrate has a solubility of about 10 μgA/mL (expressed as the free base) in phosphate buffered saline (pH 6.5), whereas the free base form has a solubility of less than about 0.2 μgA/mL under the same conditions. Thus, crystalline ziprasidone hydrochloride is a solubility-improved form relative to the crystalline free base form of drug.

[3] = in vitro membrane permeation test
Description: The ziprasidone coated crystals were evaluated in vitro using a membrane permeation test. An Accurel® PP 1E microporous polypropylene membrane was obtained from Membrana GmbH (Wuppertal, Germany). The membrane was washed in isopropyl alcohol and rinsed in methanol in a sonicating bath for 1 minute at ambient temperature, and then allowed to air dry at ambient temperature. The feed side of the membrane was then plasma-treated to render it hydrophilic by placing a sample of the membrane in a plasma chamber. The atmosphere of the plasma chamber was saturated with water vapor at a pressure of 550 mtorr. A plasma was then generated using radio frequency (RF) power inductively coupled into the chamber via annular electrodes at a power setting of 50 watts for 45 seconds. The contact angle of a drop of water placed on the surface of the plasma-treated membrane was about 40°. […]
To form the feed solution, a 1.39 mg sample of the coated crystals was weighed into the feed reservoir. […] Samples were then diluted in […] IPA and analyzed using HPLC. […]
The maximum flux of drug across the membrane (in units of mgA/cm^2-min) was determined by performing a least-squares fit to the data in Table 3 from 0 to 60 minutes to obtain the slope, multiplying the slope by the permeate volume (5 ml), and dividing by the membrane area (4.9 cm^2).

| SMILES | AUC90 (area under the concentration-versus-time curve) [1] [min·µgA/mL] | MDC90 (maximum dissolved concentration of ziprasidone) [1] [µgA/mL] | solubility ([2]; listed as free base form) | Concentration (permeate solution) ([3]; feed MFD solution 100 μgA/ml if all dissolved, permeate 60 wt % decanol in decane, 37° C., time 0 min) [μgA/ml] | Initial Flux of Ziprasidone ([3]; least-squares fit of Table 3 data from 0 to 60 minutes, permeate volume 5 ml, membrane area 4.9 cm^2) [µgA/cm²·min] | AUC90 (area under the concentration-versus-time curve) ([1]; hydrochloride monohydrate) [min·µgA/mL] | MDC90 (maximum dissolved concentration of ziprasidone) ([1]; hydrochloride monohydrate) [µgA/mL] | solubility ([2]; hydrochloride monohydrate) |
| --- | --- | --- | --- | --- | --- | --- | --- | --- |
| O=C1Cc2cc(CCN3CCN(c4nsc5ccccc45)CC3)c(Cl)cc2N1 [Ziprasidone Free Base, ziprasidone] | 120 | 2 | less than 0.2 μgA/mL | – | – | – | – | – |
| O=C1Cc2cc(CCN3CCN(c4nsc5ccccc45)CC3)c(Cl)cc2N1 [Ziprasidone hydrochloride monohydrate, ziprasidone hydrochloride monohydrate] | – | – | – | 0.5 | 0.16 | 1700 | 22 | about 10 μgA/mL |
